Experiment [1] relates to A. succinogenes strain FZ45 830.60. As to the kind of experiment: Production fermentation of dextrose to succinic acid, strain FZ45 830.60. Type of experiment: cell-based, Actinobacillus succinogenes. An excerpt:
In a medium containing 90-155 g/l of dextrose as the primary carbon source supplemented with 15 g/liter of a commercial yeast extract (TASTONE™ 900AG from Sensient, Milwaukee, Wis.) the 830.60 strain was capable of producing a titer of 100 g/l of succinic acid with a 85-90% yield from dextrose at a productivity rate of 2 To 3 g/liter/hour.
For the present work, a variety of media alterations were tried in an attempt to substitute the commercial yeast extract with corn steep liquor and/or with a locally produced homogenized yeast extract made by homogenizing aerobically grown yeast produced incident to ethanol fermentation, and/or by supplementing the media with betaine and/or glutamate. To distinguish commercial yeast extract, which is available from distributors a dry powder, from a homogenate of yeast cells made locally by rupturing yeast cells in liquid suspension, the latter is referred to herein as “local yeast homogenate”
Corn steep liquor (CSL) was used as the target nutrient source to substitute for yeast extract. CSL is a by-product of wet corn milling obtained by steeping corn grain in water containing a small amount of a sulfide compound for several hours. CSL is rich in low molecular weight organic acids, some carbohydrates, vitamins and minerals that are released from the corn grain. The amount of CSL and local yeast homogenate is shown in terms of dry solids basis (dsb) meaning the amount of material added excluding water weight, per liter of fermentation. Glutamate was added in the form of monosodium glutamate (MSG) and betaine was added in the form of the anhydrous base in the amounts shown. Dextrose was present at between 90 and 125 g/l in all starting media.
Local yeast homogenate was obtained by aerobically growing an ethanol producing strain of the bakers yeast S. cerevesiae on dextrose until the culture reached stationary phase, recovering the yeast cells as paste, and homogenizing the yeast paste with an APV Gaulin French press type homogenizer at a pressures of 12,500 psi or greater. The glutamic acid was added in the form of monosodium glutamate, and the betaine was betaine base anhydrous from MP Biomedicals
Inoculum Medium A. succinogenes strain FZ45830,60, provided by MBI International, was grown in two 100 ml serum bottles each containing 50 ml of inoculum medium incubated at 38° C. for 15-24 hours by shaking in a rotary incubator at 180 rpm, which was then used as 5% vol/vol inoculum for final fermenter volume of 2.0 liters in a 7.5 lite fermenter. The inoculum medium was prepared in two steps. In the first step, 4 g of MgCO3 was weighed into a 100 ml Wheaton serum bottle containing 30 ml of distilled water, which was then sealed, autoclaved and cooled. In the second step the remaining ingredients, which were prepared as supplemental sterilized solutions, were added to the serum bottle with a sterile syringe. The supplemental solutions and formulation of the inoculum media are shown below.
The serum bottle was inoculated with 1.5 ml of an overnight culture grown in the same medium. The serum bottle was flushed and overlaid with CO2 before incubation
Seed Medium A New Brunswick EPPENDORF BiOFLO 310-7.5 liter fermenter was inoculated with the 2 serum bottles containing the inoculation culture for initial production fermentation studies or as a seed culture for larger scale fermentations. The operating conditions are listed below:
The seed medium contained 4 g/l CSL dsb, 14 g/l TASTONE 900AG yeast extract, 0.0002 g/l biotin, 10 ml/l 0.5M sodium phosphate buffer and 100 g/l dextrose. The pH was adjusted with a 35% Mg(OH)2 slurry. The seed fermenter was inoculated at 5% v/v from the incubated serum bottle culture and was harvested in the early log phase (e.g., an increase in OD of 3 to 4 units) other measure of early log phase?) Two hundred ml of the seed culture was used to inoculate 4 liters of media in a second 7.5 liter production fermenter. […]

The test system of experiment [2] is Actinobacillus Succinogenes. The note with it: osmoprotectant added to media; cited from earlier work.

SMILES strings stand for the structures.

Consider `C[N+](C)(C)CC(=O)O` [betaine, N,N,N-trimethylglycine], for which, in experiment [1] (betaine 0.1 to 1 g/liter), the succinic acid produced is 70 to 115 g/L and the “succinic acid produced, concentration” value lay in the range of 590 to 980 mM. In addition, in experiment [1] (betaine 1 g/liter, Table 1), the productivity rate is listed as 2.4-2.9 g per liter per hour, the titer was 90 to 104 g/L and the yield from glucose entry is given as “about 85%”.
In the case of `O=C(O)CCCC[C@@H]1SC[C@@H]2NC(=O)N[C@@H]21` [biotin], in experiment [1] (betaine provided as sole non-nutrative supplement), the “effect on yield from glucose” value is “did not statistically increase the yield from glucose”.
Regarding `O=C(O)[C@@H]1CCCN1` [proline], the increase in productivity in experiment [2] is listed as 22%.

The values above are taken from patent US20150147792A1, “Betaine Enhancement of Fermentation to make C4 Diacids” (ARCHER DANIELS MIDLAND COMPANY, priority 2012, published 2015).
